Results reported in patent publication US9034655B2, “Highly water-soluble, cationic luminescent labels” (SETA BioMedicals, LLC, priority 2006, dated 2015).

Columns and labels:
[1] = Fluorescence (luminescent) lifetime of dyes and conjugates; format: physicochemical; details: for luminescent lifetime (τ): solvent not stated
Source text: Typical assays based on the measurement of the fluorescence lifetime as a parameter include for example FRET (fluorescence resonance energy transfer) assays. The binding between a fluorescent donor labeled species (typically an antigen, or a ligand) and a fluorescent acceptor labeled species may be accompanied by a change in the intensity and/or the fluorescence lifetime. The lifetime can be measured using intensity-(Time corrlated single photon counting TCSPC) or phase-modulation-based methods (J. R. LAKOWICZ, PRINCIPLES OF FLUORESCENCE SPECTROSCOPY (2nd Ed. 1999)).

[2] = Fluorescence quantum yield (QY); format: physicochemical
[3] = Absorption and emission maxima (spectral properties); format: physicochemical
Source text: The synthesis of representative dyes is provided in the Examples Section. The structures, absorption and emission data as well as the luminescent lifetime in different solvents of specific dyes are given in Table 1.

[4] = cited from earlier work

Molecule | Lifetime [ns] ([1]; Ethanol (Table 1)) | Lifetime [ns] ([1]; Water (Table 1)) | λ(abs) [nm] ([3]; Ethanol) | λ(fl) [nm] ([3]; Ethanol) | λ(abs) [nm] ([3]; Water) | λ(fl) [nm] ([3]; Water) | (QY [%]) ([2]; Water (Table 1)) [%] | (QY [%]) ([2]; Ethanol (Table 1)) [%] | further results
CN(C)c1ccc2c3c(cccc13)C(=O)N(c1ccccc1)C2=O [Dye 1, phenylimide of 4-dimethyl aminonaphthalic acid] | – | – | – | – | – | – | – | – | Lifetime [ns] ([1]; Ethanol): <<1 ns; lifetime in ethanol ([1]; Ethanol): < 1 ns; lifetime in water compared with ethanol ([1]; Water): even further reduced; (QY [%]) ([2]; Ethanol): 0.5%; Q.Y. in water compared with ethanol ([2]; Water): even further reduced
CN1C[N+](C)(C)Cc2cc3c4c(cccc4c21)C(=O)N(c1ccc(C(=O)O)cc1)C3=O.[Cl-] [Dye 3, 5-(4-carboxyphenyl)-9,9,11-trimethyl-4,6-dioxo-5,6,8,9,10,11-hexahydro-4H-isoquino[4,5-g,h]quinazolin-9-ium chloride] | – | – | – | – | – | – | – | – | lifetime in water ([1]; Water): 9.3 ns; overall decrease in fluorescence lifetime ([1]; free dye in water vs IgG conjugate at D/P about 8): 10%; lifetime labeled to IgG ([1]; labeled to IgG at a D/P ratio of about 1): 8.9 ns; lifetime labeled to IgG ([1]; labeled to IgG, D/P ratio of about 8): 8.4 ns
CN1C[N+](C)(C)Cc2c1cc1c3c(cccc23)C(=O)N(CCCCCC(=O)O)C1=O [Dye 4a] | – | – | – | – | – | – | – | – | luminescent lifetime (τ) [1]: 26 ns
CN1C[N+](C)(C)Cc2cc3c4c(cccc4c21)C(=O)N(c1ccccc1)C3=O.[Cl-] [Dye 5, 9,9,11-trimethyl-4,6-dioxo-5-phenyl-5,6,8,9,10,11-hexahydro-4H-isoquino[4,5-g,h]quinazolin-9-ium chloride] | 8.5 | 9.4 | 393 | 498 | 405 | 515 | 72 | 58 | Lifetime [ns] ([1]; DMF): 9.0 ns; Lifetime [ns] ([1]; Ethanol): 8.5 ns; Lifetime [ns] ([1]; Water): 9.4 ns; (QY [%]) ([2]; Ethanol): 58%; (QY [%]) ([2]; Water): 75%; λ(abs) [nm] ([3]; DMF): 393 nm; λ(fl) [nm] ([3]; DMF): 500 nm; melting point: 235 °C
CN1C[N+](C)(C)Cc2c1cc1c3c(cccc23)C(=O)N(c2ccccc2)C1=O [Dye 6, 8,10,10-trimethyl-4,6-dioxo-5-phenyl-5,6,8,9,10,11-hexahydro-4H-isoquino[5,4-fg]quinazolin-10-ium hexafluorophosphate] | 23.3 | 22.9 | 414 | 513 | 426 | 545 | – | 51 | luminescent lifetime (τ) [1]: around 23 ns
CCOC(=O)c1c(C)nn2c(=O)c3cccc4c5c(cc(c43)c12)C[N+](C)(C)CN5C.[Cl-] [Dye 8] | 7.8 | 5.7 | 436 | 584 | 449 | 600 | 7 | 44 | Lifetime [ns] ([1]; Water + BSA): 6.1 ns; λ(abs) [nm] ([3]; Water + BSA): 449 nm; λ(fl) [nm] ([3]; Water + BSA): 600 nm
CN1C[N+](C)(C)Cc2c1ccc1cc3ccccc3cc21 [Dye 13, 2,2,4-trimethyl-1,2,3,4-tetrahydronaphtho[2,3-f]quinazolin-2-ium hexafluorophosphate] | – | 20.9 | 395 | 462 | 398 | 481 | 40 | 30 | lifetime in water ([1]; Water): 20 ns
fluorescein-isothiocyanate [FITC] | – | – | – | – | – | – | – | – | lifetime losses when covalently labeled to proteins ([4]; D/P ~ 8, Lakowicz et al. 2004): ~40%; lifetime τ ([4]; free label): 4.0 ns

The next lines start with results.

Lifetime [ns] ([1]; Ethanol (Table 1)) | Lifetime [ns] ([1]; Water (Table 1)) | λ(abs) [nm] ([3]; Ethanol) | λ(fl) [nm] ([3]; Ethanol) | λ(abs) [nm] ([3]; Water) | λ(fl) [nm] ([3]; Water) | (QY [%]) ([2]; Water (Table 1)) [%] | Molecule | (QY [%]) ([2]; Ethanol (Table 1)) [%] | further results
8.0 | 9.3 | 390 | 500 | 404 | 518 | – | CN1C[N+](C)(C)Cc2cc3c4c(cccc4c21)C(=O)N(c1ccc(C(=O)ON2C(=O)CCC2=O)cc1)C3=O [Dye 3-NHS] | – | –
– | 9.4 | – | – | 405 | 515 | 72 | CN1C[N+](C)(C)Cc2cc3c4c(cccc4c21)C(=O)N(c1ccc(C(=O)O)cc1)C3=O.[Cl-] [Dye 3a] | – | –
